A word on the EC50: it is the concentration that produces a half-maximal response.

The source of these data is ChEMBL document CHEMBL3865791, “Discovery and development of natural product oridonin-inspired anticancer agents” (Eur J Med Chem, 2016).

Assay [1] in a line: Antiproliferative activity against human MDA-MB-231 cells measured after 48 hrs by MTT assay. It is filed as functional, cell-based. The conditions noted are these: MDA-MB-231, 48 h. For orientation: Tetrazolium dyes change colour on reduction, which living cells bring about.
Assay [2] can be described thus: Antiproliferative activity against human MCF7/ADR cells measured after 48 hrs by MTT assay. Particulars: NCI/ADR-RES. It is filed as functional, cell-based.
Assay [3] is described as follows: Antiproliferative activity against human ER-triple negative MDA-MB-468 cells measured after 48 hrs by MTT assay. Format: functional, cell-based. Particulars: MDA-MB-468, 48 h.
A short description of assay [4]: Antiproliferative activity against human ER-positive MCF7 cells measured after 48 hrs by MTT assay. Format: functional, cell-based. The conditions noted are these: MCF7, 48 h.
The nature of assay [5]: Antiproliferative activity against human MDA-MB-231 cells. Format: functional, cell-based.
The nature of assay [6]: Antiproliferative activity against human MCF7 cells. Format: functional, cell-based.
The nature of assay [7]: Antiproliferative activity against human K562 cells after 72 hrs by MTT assay. The conditions noted are these: K562, 72 h. Format: functional, cell-based.
A short description of assay [8]: Antiproliferative activity against human CaEs17 cells after 72 hrs by MTT assay. It is filed as functional, cell-based. Particulars: CaEs17, 72 h.
Assay [9] can be described thus: Antiproliferative activity against human […] cells after 72 hrs by MTT assay. It is filed as functional, cell-based.
Assay [10] can be described thus: Antiproliferative activity against human MGC803 cells after 72 hrs by MTT assay. It is filed as functional, cell-based. The conditions noted are these: MGC-803, 72 h.
The nature of assay [11]: Antitumor activity against human MGC803 cells xenografted in ICR mouse assessed as tumor growth inhibition at 40 mg/kg/day, ip for 25 consecutive days relative to control. It is filed as functional. The conditions noted are these: MGC-803, ip, read-out: TGI. A general note: Xenograft models place foreign cells or tissue in a host animal.

Where a name gives a salt, the structure may show the parent alone.

Regarding `C=C1C(=O)[C@@]23[C@@H]4OC(C)(C)O[C@@]25OC[C@]2(C6=C(CC[C@@H](OCC(C)C)O6)CC(C)(C)[C@H]2[C@@H]5O)[C@@H]3CC[C@@H]14`, the EC50 was 8200 nM in [1], 10300 nM in assay [2], 7000 nM in assay [3] and 5800 nM in assay [4].

`C=C1C(=O)[C@]23[C@H](O)[C@H]1CC[C@H]2[C@@]12CO[C@@]3(O)[C@@H](O)[C@@H]1C(C)(C)Cc1sc(NC)nc12`: the EC50 in assay [5] stood at 2100 nM; in assay [6] it was 1300 nM.

`C=C1C(=O)[C@@]23[C@@H]4OC(C)(C)O[C@@]25OC[C@]2(C6=C(CC[C@H](OCCCC)O6)CC(C)(C)[C@H]2[C@@H]5O)[C@@H]3CC[C@@H]14`: the EC50 was found to be 2200 nM in assay [1], 3800 nM in assay [2], 3000 nM in assay [3] and 2400 nM in assay [4].

For the compound `C=C1C(=O)[C@]23[C@H](O)[C@H]1CC[C@H]2[C@@]12CO[C@@]3(O)[C@@H](O)[C@@H]1C(C)(C)Cc1sc(N3CCCCCC3)nc12`, the EC50 in assay [5] is 6800 nM; in [6] it was 1200 nM.

As for `C=C1C(=O)[C@@]23[C@@H]4OC(C)(C)O[C@@]25OC[C@]2(C6=C(CC[C@@H](OCC)O6)CC(C)(C)[C@H]2[C@@H]5O)[C@@H]3CC[C@@H]14`, the EC50 in assay [1] came to 540 nM; in assay [2], 1600 nM; in assay [3] it was 520 nM; in assay [4], 440 nM.

As for `C=C1C(=O)[C@]23[C@H](O)[C@H]1CC[C@H]2[C@@]12CO[C@@]3(O)[C@@H](O)[C@@H]1C(C)(C)Cc1sc(NCCN3CCCCC3)nc12`, the EC50 was 1800 nM in assay [5] and 1000 nM in assay [6].

For the compound `C=C1C(=O)[C@@]23C(=O)O[C@H]4CCC(C)(C)[C@H]5[C@H](O)OC[C@@]45[C@@H]2CC[C@@H]1[C@H]3OC(=O)c1ccccc1`, the EC50 in assay [7] turned out to be 210 nM; in assay [8] it was 540 nM; in assay [9], 1420 nM; in assay [10] it was 930 nM.

On to `C=C1C(=O)[C@]23[C@H](O)[C@H]1CC[C@H]2[C@@]12CO[C@@]3(O)[C@@H](O)[C@@H]1C(C)(C)Cc1sc(N(C)C)nc12`, for which the EC50 in assay [5] stood at 300 nM; in assay [6], 800 nM.

As to `C=C1C(=O)[C@@]23[C@@H]4OC(C)(C)O[C@@]25OC[C@]2(C6=C(CC[C@@H](OCCCC)O6)CC(C)(C)[C@H]2[C@@H]5O)[C@@H]3CC[C@@H]14`, the EC50 in [1] was 3700 nM; in [2], 6800 nM; in assay [3], 5800 nM; in [4], 2400 nM.

`C=C1C(=O)[C@]23[C@H](O)[C@H]1CC[C@H]2[C@@]12CO[C@@]3(O)[C@@H](O)[C@@H]1C(C)(C)Cc1sc(N)nc12`: the EC50 in assay [5] came to 3200 nM; in assay [6], 1000 nM.

In the case of `C=C1C(=O)[C@@]23C(=O)O[C@H]4CCC(C)(C)[C@H]5[C@H](O)OC[C@@]45[C@@H]2CC[C@@H]1[C@H]3OC(C)=O`, the EC50 in [7] was 1110 nM; in assay [8], 1590 nM; in [9], 1970 nM; in assay [10], 1990 nM.

As to `C=C1C(=O)[C@]23[C@H](O)[C@H]1CC[C@H]2[C@@]12CO[C@@]3(O)[C@@H](O)[C@@H]1C(C)(C)Cc1sc(NCCCC)nc12`, the EC50 in assay [5] came to 1100 nM; in assay [6], 600 nM.

`C=C1C(=O)[C@@]23[C@@H]4OC(C)(C)O[C@@]25OC[C@]2(C6=C(CC[C@@H](OCCCl)O6)CC(C)(C)[C@H]2[C@@H]5O)[C@@H]3CC[C@@H]14`: the EC50 in assay [1] came to 7200 nM; in assay [2] it was 8700 nM; in assay [3] it was 7300 nM; in assay [4], 6800 nM.

Turning to `C=C1C(=O)[C@@]23C(=O)O[C@H]4CCC(C)(C)[C@H]5C(=O)OC[C@@]45[C@@H]2CC[C@@H]1[C@H]3OC(=O)c1ccc(Cl)cc1`, the EC50 came to 140 nM in [7], 340 nM in assay [8], 890 nM in assay [9] and 340 nM in [10].

In the case of `C=C1C(=O)[C@]23[C@H](O)[C@H]1CC[C@H]2[C@@]12CO[C@@]3(O)[C@@H](O)[C@@H]1C(C)(C)Cc1sc(NC(C)=O)nc12`, the EC50 in [5] was determined as 6800 nM; in assay [6], 2000 nM.

For the compound `C=C1C(=O)[C@@]23[C@@H]4OC(C)(C)O[C@@]25OC[C@]2(C6=C(CC[C@H](OCC)O6)CC(C)(C)[C@H]2[C@@H]5O)[C@@H]3CC[C@@H]14`, the EC50 in assay [1] came to 6100 nM; in [2] it was 4700 nM; in [3], 5400 nM; in assay [4], 3500 nM.

Take `C=C1C(=O)[C@]23[C@H](O)[C@H]1CC[C@H]2[C@@]12CO[C@@]3(O)[C@@H](O)[C@@H]1C(C)(C)Cc1sc(NC(=N)N)nc12`: the EC50 in assay [5] was greater than 10000 nM; in [6] it was 3400 nM.

`C=C1C(=O)[C@@]23C(=O)O[C@H]4CCC(C)(C)[C@H]5C(=O)OC[C@@]45[C@@H]2CC[C@@H]1[C@H]3OC(=O)c1ccccc1Cl`: the EC50 was 260 nM in assay [7], 280 nM in [8], 720 nM in assay [9] and 820 nM in assay [10].

For `C=C1C(=O)[C@@]23C(=O)O[C@H]4CCC(C)(C)[C@H]5C(=O)OC[C@@]45[C@@H]2CC[C@@H]1[C@H]3OC(=O)c1ccccc1`, the EC50 in [7] was found to be 330 nM; in [8] it was 810 nM; in assay [9], 790 nM; in assay [10], 460 nM.

As to `C=C1C(=O)[C@]23[C@H](OC(=O)c4ccccc4C(=O)OCCCOc4no[n+]([O-])c4S(=O)(=O)c4ccccc4)[C@H]1CC[C@H]2[C@@]12CO[C@@]3(O)[C@@H](O)[C@@H]1C(C)(C)CC[C@@H]2O`, the EC50 in assay [7] is 1820 nM; in assay [9], 860 nM.

Regarding `C=C1C(=O)[C@@]23C(=O)O[C@H]4CCC(C)(C)[C@H]5[C@H](O)OC[C@@]45[C@@H]2CC[C@@H]1[C@H]3OC(=O)c1ccccc1Cl`, the EC50 in [7] is 220 nM; in [8], 600 nM; in assay [9], 850 nM; in [10] it was 800 nM.

With `C=C1C(=O)[C@@]23C(=O)O[C@H]4CCC(C)(C)[C@H]5C(=O)OC[C@@]45[C@@H]2CC[C@@H]1[C@H]3OC(=O)c1ccc(C)cc1`, the EC50 in assay [7] was determined as 520 nM; in assay [8] it was 1780 nM; in assay [9] it was 1580 nM; in [10] it was 1540 nM.

Consider `C=C1C(=O)[C@@]23C(=O)O[C@H]4CCC(C)(C)[C@H]5C(=O)OC[C@@]45[C@@H]2CC[C@@H]1[C@H]3OC(=O)c1cccnc1`, for which the EC50 in assay [7] came to 1740 nM; in assay [8], 3540 nM; in assay [9], 710 nM; in [10], 1160 nM. For the same compound, the inhibition in vivo at 40 mg/kg/day in assay [11] stood at 64.8%.

On to `C=C1C(=O)[C@@]23C(=O)O[C@H]4CCC(C)(C)[C@H]5C(=O)OC[C@@]45[C@@H]2CC[C@@H]1[C@H]3OC(C)=O`, for which the EC50 in assay [7] amounted to 350 nM; in [8], 690 nM; in assay [9], 1370 nM; in assay [10], 1270 nM.

`COc1cccc2c1C(=O)c1c(O)c3c(c(O)c1C2=O)C[C@@](O)(C(=O)CO)C[C@@H]3O[C@H]1C[C@H](N)[C@H](O)[C@H](C)O1` [DOXORUBICIN HYDROCHLORIDE]: the EC50 in [1] was 2300 nM; in assay [2], greater than 10000 nM; in [3] it was 700 nM; in assay [4], 700 nM.

As for `C=C1C(=O)[C@@]23[C@@H]4OC(C)(C)O[C@@]25OC[C@]2(C6=C(CC[C@H](OCC(C)C)O6)CC(C)(C)[C@H]2[C@@H]5O)[C@@H]3CC[C@@H]14`, the EC50 is 1800 nM in [1], 4400 nM in [2], 2600 nM in assay [3] and 2200 nM in assay [4].

As for `C=CCO[C@H]1CCC2=C(O1)[C@@]13CO[C@@]4(OC(C)(C)O[C@@H]5[C@H]6CC[C@@H]1[C@]54C(=O)C6=C)[C@@H](O)[C@@H]3C(C)(C)C2`, the half-maximal effective concentration (EC50) in assay [1] is 7100 nM; in [2] it was 4300 nM; in [3], 4900 nM; in assay [4], 4300 nM.

On to `C=C1C(=O)[C@]23[C@H](O)[C@H]1CC[C@H]2[C@@]12CO[C@@]3(O)[C@@H](O)[C@@H]1C(C)(C)Cc1sc(NC3CCCCC3)nc12`, for which the EC50 is 800 nM in assay [5] and 900 nM in [6].

Turning to `C=CCO[C@@H]1CCC2=C(O1)[C@@]13CO[C@@]4(OC(C)(C)O[C@@H]5[C@H]6CC[C@@H]1[C@]54C(=O)C6=C)[C@@H](O)[C@@H]3C(C)(C)C2`, the EC50 was determined as 3300 nM in assay [1], 3200 nM in [2], 4400 nM in [3] and 2100 nM in assay [4].

In the case of `C=C1C(=O)[C@@]23C(=O)O[C@H]4CCC(C)(C)[C@H]5[C@H](O)OC[C@@]45[C@@H]2CC[C@@H]1[C@H]3OC(=O)c1ccc(C)cc1`, the EC50 was 140 nM in assay [7], 450 nM in assay [8], 1010 nM in [9] and 610 nM in assay [10].

Take `C=C1C(=O)[C@@]23[C@@H]4OC(C)(C)O[C@@]25OC[C@]2(C6=C(CC[C@H](OCCCl)O6)CC(C)(C)[C@H]2[C@@H]5O)[C@@H]3CC[C@@H]14`: the half-maximal effective concentration (EC50) in [1] amounted to 3300 nM; in [2], 3100 nM; in [3] it was 3000 nM; in [4], 2300 nM.
